According to publication PMC8490629, “Metabolites of Procyanidins From Litchi Chinensis Pericarp With Xanthine Oxidase Inhibitory Effect and Antioxidant Activity” (Frontiers in Nutrition, 2021):
Where two headings read alike, the source gives them in different places. Marks after values point to notes of the source that are not given here.

Assays:
[1] = Hydroxyl radical scavenging activity
Protocol: Hydroxyl radical scavenging activity was assessed according to the method of Dong et al. ([42]) with modifications. The reagents and samples were added strictly obeying following order: 0.25 ml 1.5 mM phenanthroline ethanolic solution, 0.5 ml phosphoric acid buffer (pH = 7.4), 0.25 ml 1.5 mM freshly prepared ferrous sulfate solution, 0.5 ml sample (0–0.5 mg), and 0.25 ml 0.01% H2O2. The injured tubes in the experiment were prepared by the same reagents except samples, while control was carried out by adding sample without H2O2. The mixtures were shaken and incubated at 37°C for 1 h, and then measured at 536 nm. The hydroxyl radical scavenging activity was calculated using the following equation:
hydroxyl radical scavenging rate (%) =Asample-Ainjured/Acontrol-Ainjured ×100

[2] = Urinary excretion of procyanidins and metabolites in rats after oral LPPC (HPLC / LC-MS); type: in vivo, rat; conditions: for Urinary excretion, phenolic acids / Urinary excretion, procyanidin (% to oral dose): rat urine 0-24 h after oral LPPC 300 mg/kg, after glucuronidase/sulfatase deconjugation; for Urinary excretion as share of the oral intake: rat urine, oral LPPC 300 mg/kg bw
Protocol: Male Sprague-Dawley rats weighing 220 ± 20 g were randomly divided into two groups (n = 20) with 10 rats in each group. Prior to administration, animals were deprived of food for 12 h, but had access to deionized water. The LPPC was dissolved in physiological saline and administered orally to rats at a dose of 300 mg/kg body weight. In addition, the physiological saline was administered orally to the rats in another group as control. All the rats were placed in metabolic cages, each rat per cage (Jiayuan Technology Co. Ltd., Beijing, China). The samples of urine excreted from 0 to 24 h postadministration were collected from the bottom of the metabolic cage under chilled conditions using an ice bath and stored at −80°C before analysis, referring to the method described previously ([38]).
The sample of urine was centrifuged at 4,000 r/min for 10 min at 4°C, and the supernatant was collected. The supernatant was acidified to pH = 5.5 with 0.6 mol/l acetic acid and incubated at 37°C for 60 min in the presence of 10 KU β-glucuronidase with the activity of sulfatase. After further acidification to pH = 2 with 6 mol/l HCl, the samples were directly extracted by ethyl acetate × 3. The resulting supernatant was dried under vacuum by rotatory evaporation at 40°C until the ethyl acetate was completely removed and dissolved in 1 ml of 50% methanol. Then, the solution was purified by the solid phase extraction, and the residue was redissolved in methanol and analyzed by LC-MS as described by Li et al. with modifications ([39]).
Selected samples were analyzed on an Agilent 1100 LC-ESI-MS system (Agilent Technologies Co. Ltd., Foster City, California, USA) to identify metabolites in urine. A VP-ODS column (150 × 4.6 mm ID, 5 μm particle size, Shimadzu Co., Kyoto, Japan) was used and 20 μl solution of the sample was injected. The mobile phases consisted of 0.4% (v/v) aqueous acetic acid as A and acetonitrile as B with the following linear gradient: from 5 to 35% B in the first 40 min, from 35 to 50% B in the next 5 min, from 50 to 80% B in the next 5 min, and from 80 to 5% B in the next 5 min, and re-equilibrated with 5% B for 5 min before next injection. The flow rate was 0.2 ml/min and the absorbance of the eluate was monitored at 280 nm. Mass spectra were collected using an electrospray ionization (ESI) ion source in the negative mode under the following conditions: orifice voltage, −30 V; nebulizing pressure, 30 psi; heat capillary temperature, 275°C; and mass range, m/z 100-1,200.

xanthine oxidase = molecular target: T1, xanthine oxidase (Bos taurus, UniProt P80457); experiment: Xanthine oxidase inhibition assay (uric acid production from xanthine, 295 nm); type: biochemical; conditions: for IC50: read-out: IC50 (μg/ml) xanthine oxidase (converted); for inhibition at 200 µg/mL: read-out: Inhibition (%) at 200 μg/ml
T1 construct: purchased Sigma (St. Louis, MO, USA)

[3] = DPPH radical scavenging activity
Protocol: 1, 1-Diphenyl-2-picrylhydrazyl radical scavenging activity was determined referring to the method described previously ([41]). Litchi pericarp and phenolic acids were dissolved in 1.0 ml of deionized water at various concentrations ranging from 2.0 to 100.0 μg/ml. Then, the solution of the sample was mixed with 1.0 ml of freshly prepared 0.2 mM DPPH ethanolic solution. Control in the experiment was prepared by the same reagent without the sample. All the tubes were incubated at 37°C for 30 min in the dark, and the final solution was recorded at 517 nm. The DPPH radical scavenging activity was calculated using the following equation:
DPPH radical scavenging rate (%) =(Acontrol-Asample)/Acontrol × 100

T1 sequence (P80457 2-1332 limits assumed): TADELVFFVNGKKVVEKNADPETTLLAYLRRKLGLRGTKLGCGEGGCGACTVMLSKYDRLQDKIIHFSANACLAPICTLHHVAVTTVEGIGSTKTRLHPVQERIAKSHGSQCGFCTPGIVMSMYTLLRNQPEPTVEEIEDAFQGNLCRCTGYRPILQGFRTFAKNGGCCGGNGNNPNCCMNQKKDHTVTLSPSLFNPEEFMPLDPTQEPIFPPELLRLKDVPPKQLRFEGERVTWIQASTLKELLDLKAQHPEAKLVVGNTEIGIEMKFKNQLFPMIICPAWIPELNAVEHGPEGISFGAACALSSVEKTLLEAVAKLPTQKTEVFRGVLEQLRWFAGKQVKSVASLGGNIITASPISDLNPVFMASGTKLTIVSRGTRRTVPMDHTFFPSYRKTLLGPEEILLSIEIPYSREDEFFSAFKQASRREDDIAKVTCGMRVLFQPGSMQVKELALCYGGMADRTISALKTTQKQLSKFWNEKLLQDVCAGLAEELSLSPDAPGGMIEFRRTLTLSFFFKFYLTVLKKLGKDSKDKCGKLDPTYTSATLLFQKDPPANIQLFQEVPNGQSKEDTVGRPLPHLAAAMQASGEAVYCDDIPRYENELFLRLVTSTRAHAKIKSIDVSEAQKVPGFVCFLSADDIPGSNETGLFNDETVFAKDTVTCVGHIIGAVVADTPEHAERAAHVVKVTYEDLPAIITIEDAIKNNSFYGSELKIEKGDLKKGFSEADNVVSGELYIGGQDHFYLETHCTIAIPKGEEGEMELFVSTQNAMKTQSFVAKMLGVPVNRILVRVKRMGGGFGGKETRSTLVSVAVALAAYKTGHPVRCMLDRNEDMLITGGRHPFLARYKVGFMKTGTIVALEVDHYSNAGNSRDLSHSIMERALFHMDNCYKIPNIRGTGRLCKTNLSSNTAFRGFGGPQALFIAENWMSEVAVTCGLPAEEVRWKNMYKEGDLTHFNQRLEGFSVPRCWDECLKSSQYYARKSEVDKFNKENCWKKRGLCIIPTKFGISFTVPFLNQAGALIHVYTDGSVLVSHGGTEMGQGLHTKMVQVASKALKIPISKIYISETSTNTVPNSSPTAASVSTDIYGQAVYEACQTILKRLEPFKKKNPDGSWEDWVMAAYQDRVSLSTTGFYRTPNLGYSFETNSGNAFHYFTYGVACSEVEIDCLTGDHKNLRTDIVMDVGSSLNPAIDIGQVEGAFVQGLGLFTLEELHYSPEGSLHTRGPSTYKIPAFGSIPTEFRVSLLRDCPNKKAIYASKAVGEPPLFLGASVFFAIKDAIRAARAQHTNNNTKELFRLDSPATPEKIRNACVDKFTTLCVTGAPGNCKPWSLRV

SMILES	IC50 (μg/ml) ·OH [1]	Urinary excretion, phenolic acids [2]	IC50 (xanthine oxidase)	inhibition at 200 µg/mL (xanthine oxidase; xanthine oxidase, 200 μg/ml)	IC50 (μg/ml) DPPH· [3]	IC50 (μg/ml) DPPH· ([3]; listed as 3-hydroxyphenylacetic acid)	IC50 (μg/ml) DPPH· ([3]; listed as 3-hydroxyphenylpropionic acid)	IC50 (μg/ml) DPPH· ([3]; listed as 4-hydroxyphenylpropionic acid)	Urinary excretion, procyanidin (% to oral dose) [2]	Urinary excretion as share of the oral intake [2]	Inhibition (%) at 200 μg/ml (xanthine oxidase; xanthine oxidase, 200 μg/ml)	Inhibition (%) at 200 μg/ml (xanthine oxidase; xanthine oxidase, 200 μg/ml, listed as epicatechin)	inhibition at 200 µg/mL (xanthine oxidase)	IC50 (μg/ml) DPPH· ([3]; listed as vanillic acid)
O=C(O)CCc1cccc(O)c1 [3-Hydroxyphenylpropionic acid, 3-hydroxyphenylpropionic acid]	841.57 ± 4.45^h μg/ml	12.87 ± 3.06 nmol	> 1200 µM	27 ± 1.44%	77.83 ± 0.93^g μg/ml		> 50 µg/mL							
Oc1cc(O)c2c(c1)OC1(c3ccc(O)c(O)c3)Oc3cc(O)c4c(c3C2C1O)OC(c1ccc(O)c(O)c1)C(O)C4 (stereo not drawn) [A-type dimer]	126.57 ± 2.58^a μg/ml		119 µM		5.86 ± 0.14^a μg/ml				0.54 ± 0.09 % to oral dose	0.54 ± 0.09 % (mol/mol)				
Oc1cc(O)c2c(c1)OC1(c3ccc(O)c(O)c3)Oc3cc(O)c4c(c3C2C1O)OC(c1ccc(O)c(O)c1)C(O)C4c1c(O)cc(O)c2c1OC(c1ccc(O)c(O)c1)C(O)C2 (stereo not drawn) [A-type trimer]	122.73 ± 2.35^a μg/ml		86.6 µM	> 50%	8.00 ± 0.18^b μg/ml				0.43 ± 0.02 % to oral dose	0.43 ± 0.02 % (mol/mol)				
Oc1ncnc2[nH]ncc12 [Allopurinol, reference compound]													85.6 ± 3.13%	
COc1cc(C(=O)O)ccc1O [Vanillic acid, vanillic acid]	897.33 ± 9.90^i μg/ml	6.62 ± 2.79 nmol	> 1190 µM		86.06 ± 1.33^i μg/ml								25 ± 1.47%	> 50 µg/mL
O=C(O)/C=C/c1ccc(O)cc1 [p-Coumaric acid, p-coumaric acid]	220.13 ± 4.57^e μg/ml	13.89 ± 1.65 nmol	852 µM	57.4 ± 0.62%	16.53 ± 0.65^d μg/ml									

Continued, in another order:

IC50 (μg/ml) ·OH [1]	Urinary excretion, phenolic acids [2]	IC50 (xanthine oxidase)	inhibition at 200 µg/mL (xanthine oxidase; xanthine oxidase, 200 μg/ml)	IC50 (μg/ml) DPPH· [3]	IC50 (μg/ml) DPPH· ([3]; listed as 3-hydroxyphenylacetic acid)	IC50 (μg/ml) DPPH· ([3]; listed as 3-hydroxyphenylpropionic acid)	IC50 (μg/ml) DPPH· ([3]; listed as 4-hydroxyphenylpropionic acid)	Urinary excretion, procyanidin (% to oral dose) [2]	Urinary excretion as share of the oral intake [2]	Inhibition (%) at 200 μg/ml (xanthine oxidase; xanthine oxidase, 200 μg/ml)	Inhibition (%) at 200 μg/ml (xanthine oxidase; xanthine oxidase, 200 μg/ml, listed as epicatechin)	SMILES	inhibition at 200 µg/mL (xanthine oxidase)	IC50 (μg/ml) DPPH· ([3]; listed as vanillic acid)
803.47 ± 6.38^g μg/ml	46.98 ± 3.76 nmol	> 1310 µM	21.1 ± 1.78%	82.60 ± 1.95^h μg/ml	> 50 µg/mL							O=C(O)Cc1cccc(O)c1 [3-Hydroxyphenylacetic acid, 3-hydroxyphenylacetic acid]		
813.87 ± 5.48^g μg/ml	60.54 ± 3.18 nmol	> 1200 µM	29.4 ± 0.75%	74.63 ± 1.40^f μg/ml			> 50 µg/mL					O=C(O)CCc1ccc(O)cc1 [4-Hydroxyphenylpropionic acid, 4-hydroxyphenylpropionic acid]		
121.27 ± 1.80^a μg/ml		201 µM		5.43 ± 0.10^a μg/ml				0.21 ± 0.04 % to oral dose	0.21 ± 0.04 % (mol/mol)	78.63 ± 1.72^b %	higher than 50%	Oc1cc(O)c2c(c1)O[C@H](c1ccc(O)c(O)c1)[C@H](O)C2 [(-)-Epicatechin, (-)-epicatechin]		
161.47 ± 3.31^c μg/ml	20.67 ± 2.68 nmol	531 µM		9.88 ± 0.55^c μg/ml								O=C(O)/C=C/c1ccc(O)c(O)c1 [Caffeic acid, caffeic acid]		
186.53 ± 7.56^d μg/ml	27.22 ± 7.02 nmol	552 µM	> 50%	8.96 ± 0.18b^c μg/ml						61.13 ± 0.81^f %		O=C(O)C1=C[C@@H](O)[C@@H](O)[C@H](O)C1 [Shikimic acid, shikimic acid]		
256.43 ± 9.33^f μg/ml	39.01 ± 7.33 nmol	942 µM	52.8 ± 1.57%	21.93 ± 1.25^e μg/ml								O=C(O)/C=C/c1cccc(O)c1 [m-Coumaric acid, m-coumaric acid]		
